Experimental data from paper PMC11363342 (ACS Central Science, 2024).
“Also recorded” adds a separate entry of the source.

Key:
SARS-CoV-2 [1] = assay: Viral load reduction assay on H1299/ACE2 cells, extracellular viral RNA copies by RT-qPCR; type: cell-based
SARS-CoV-2 [2] = assay: Viral load reduction assay in ALI-PBEC; type: cell-based; settings: ALI-PBEC
Description: Thus, ALI-PBEC cells were infected with SARS-CoV-2 (10^5 PFU per insert; estimated MOI ∼0.1) and treated with compounds on the apical side of the cells for 2 h. For uninfected controls, PBS was used instead of virus. The compounds were also present in the basal medium during the whole experiment until 48 hpi, when samples were harvested. […] (Figure 4D).
ALI-PBEC were pretreated with compound in the basal medium for 3 h. Cells were infected with 100 000 PFU of SARS-CoV-2/Leiden0008 per insert (estimated MOI 0.1) with compounds present in the inoculum. After 2 h at 37 °C on a rocking platform, the inoculum was removed and cells were washed three times with warm PBS. Compounds stayed present in the basal medium until 48 h postinfection. At 48 hpi the viral load was determined by plaque assay on a 200 μL apical wash (PBS incubated on the apical side of the insets for 10 min at 37 °C). For assessing cytotoxicity with the CyQuant LDH cytotoxicity assay (Thermo Fisher Scientific), 10 μL of apical wash was diluted 5 times with 40 μL of PBS. A 25 μL volume of this dilution was added to 25 μL of assay reagent and incubated for 30 min at RT in the dark. The plate was fixed and measured at a wavelength of 490 nm (Envision reader, PerkinElmer). For the activity-based probe labeling, the insets were washed one more time with PBS and processed as described previously.[52] Briefly, cells were lysed with 60 μL of potassium phosphate buffer per insert. A fluorescently labeled probe (JJB383) was diluted in MclIvaine buffer (pH 7) to a 10 μM stock and incubated for 5 min on ice. For labeling of the cell lysate, 10 μL of lysate was added to 10 μL of MclIvaine buffer and 5 μL of probe. The lysate was incubated for 30 min at 37 °C before the addition of 10 μL of Laemmli sample buffer (4×). Samples were heated at 95 °C for 5 min and separated in a 10% SDS-PAGE gel. Fluorescence was measured at a wavelength of 625 nm (Cy5) with a Uvitec Alliance Q9 imager (BioSPX). After imaging, the gels were stained with GelCode Blue stain reagent (Thermo Fisher Scientific) and visualized using a Uvitec Essential V6 system to check for equal loading.

SARS-CoV = type: cell-based; settings: Vero E6, MOI 1, 16 hpi, increasing concentrations
ER α-Glu II (GANAB) = assay: Competitive activity-based protein profiling with ABP 29 in ALI-PBEC lysate, GANAB; type: cell-based, human
SARS-CoV-2 [3] = assay: Plaque reduction assay on H1299/ACE2 cells (time of treatment); type: cell-based
Description: To evaluate whether compound 11 has an effect on host proteins (for instance, ACE2) involved in viral entry, we treated monolayers of H1299/ACE2 cells with compound 11 either 48 or 2 h before infection, during infection (0–1 h), or starting from 1 h postinfection (hpi). The cell monolayers were infected with ∼20 PFU of SARS-CoV-2, and after 1 h the inoculum was replaced with an overlay. In one well (Post Infection) the overlay contained compound 11. Remdesivir, a viral RNA synthesis inhibitor, was added to the overlay of another well, as a positive control for blocking virus replication in the cell.
H1299/ACE2 cells were seeded in a 6-well plate at a density of 1.3 × 10^5 cells/well (20% confluency), 96 h prior to infection. […] The monolayers were infected with ∼20 PFU of SARS-CoV-2/Leiden0008. In the postinfection treatment, the compound (or RDV) was added to the Avicel overlay. Cells were incubated for 4 days at 37 °C before fixation and crystal violet staining.

MERS-CoV = type: cell-based; settings: HuH-7, MOI 1, 16 hpi, increasing concentrations
GBA3 = settings: cited from earlier work
SARS-CoV-2 S protein = type: cell-based
[4] = test system: recombinant Mus musculus α-Glu II; assay: Thermal shift assay (SYPRO orange); type: binding; settings: 10 μM Mmα-Glu-II with 50 μM inhibitor; unliganded control 49.9 °C
SARS-CoV-2 [5] = assay: microbe, parasite or virus in culture; type: cell-based; settings: Severe acute respiratory syndrome coronavirus 2, Vero C1008, Vero E6 cells, SARS-CoV-2/Leiden0002, n = 3, mean ± SEM; read-out: EC50 (μM), SARS-CoV-2 CPE reduction
in vitro = settings: African green monkey
GAA = GAA (Homo sapiens, UniProt P10253); assay: Competitive activity-based protein profiling with ABP 29 in ALI-PBEC lysate, GAA; type: cell-based; settings: pH 7, 48 hpi
GBA2 = settings: cited from earlier work
SARS-CoV-2 [6] = type: cell-based
SARS-CoV-2 [7] = assay: Virucidal activity assay; settings: virus incubated 1 h; compound 11 at 50 μM

O=S1(=O)O[C@@H]2[C@H](O)[C@@H](O)[C@H](O)[C@@H](CO)[C@@H]2O1 [Compound 11, 1,6-epi-cyclophellitol cyclosulfate]
extracellular viral RNA copy numbers (in words) (SARS-CoV-2 [1]): only slightly reduced
concentration at which the maximum antiviral effect was reached (SARS-CoV-2 [2]): 0.5 µM
reduction of viral load vs untreated control (SARS-CoV-2 [2]; 0.5 μM, 48 hpi): up to 100 fold
reduction of infectious virus titers (SARS-CoV-2 [2]; 0.5–1.6 μM): up to 2 logs
infectious progeny of SARS-CoV (in words) (SARS-CoV): significant reduction of infectious progeny
ER α-Glu II inhibition in ALI-PBEC (in words) (ER α-Glu II (GANAB); 0.5 μM): almost full inhibition
in cellulo ER α-Glu II inhibition by ABP 29 labeling (in words) (ER α-Glu II (GANAB); pH 7): most efficient in inhibiting ER α-Glu II and GAA at low concentrations
plaque formation, pretreatment or treatment only during infection (SARS-CoV-2 [3]; H1299/ACE2, 5 μM, 48 or 2 h before or 0–1 h): had no effect on the number of plaques that developed or their morphology
plaque formation, treatment after infection (in the overlay) (SARS-CoV-2 [3]; H1299/ACE2, compound 11 at 5 μM): prevented the formation of plaques
infectious progeny of MERS-CoV (in words) (MERS-CoV): significant reduction of infectious progeny
inhibition of GBA3 (GBA3): does not inhibit
S protein in infected cells (immunofluorescence) (SARS-CoV-2 S protein): reduction in the amount of S protein
syncytium formation (SARS-CoV-2 S protein): reduced syncytium formation
Tm/°C [4]: 63.3 °C
EC50 (SARS-CoV-2 [5]): 0.48 ± 0.1 µM
CC50 at 3 days (in vitro): > 200000 nM
in cellulo GAA inhibition by ABP 29 labeling (in words) (GAA): most efficient in inhibiting ER α-Glu II and GAA at low concentrations
inhibition of GBA2 (GBA2): completely inactive; also recorded: does not inhibit
concentration at which the inhibitory effect reached a plateau (SARS-CoV-2 [6]): 1.6 µM
reduction of the infectious progeny virus titer (SARS-CoV-2 [6]): 100 fold
specific infectivity (infectious particles per viral RNA copy) (SARS-CoV-2 [6]; H1299/ACE2, 1.5 μM compound): decrease in specific infectivity
virucidal effect on infectious titer (SARS-CoV-2 [7]): no effect on the infectious titer
